For 25 compounds, Ki results are on record in patent US9890152B2 (Genentech, Inc., priority 2012, dated 2018).

The target in the test is T1, EGFR del746-750 T790M (Homo sapiens, UniProt P00533, DEL746-750/T790M).
T1 construct: purchased Carna Biosciences 08-528
T1 sequence (P00533 with tags, fused parts or gaps DEL746-750/T790M limits assumed): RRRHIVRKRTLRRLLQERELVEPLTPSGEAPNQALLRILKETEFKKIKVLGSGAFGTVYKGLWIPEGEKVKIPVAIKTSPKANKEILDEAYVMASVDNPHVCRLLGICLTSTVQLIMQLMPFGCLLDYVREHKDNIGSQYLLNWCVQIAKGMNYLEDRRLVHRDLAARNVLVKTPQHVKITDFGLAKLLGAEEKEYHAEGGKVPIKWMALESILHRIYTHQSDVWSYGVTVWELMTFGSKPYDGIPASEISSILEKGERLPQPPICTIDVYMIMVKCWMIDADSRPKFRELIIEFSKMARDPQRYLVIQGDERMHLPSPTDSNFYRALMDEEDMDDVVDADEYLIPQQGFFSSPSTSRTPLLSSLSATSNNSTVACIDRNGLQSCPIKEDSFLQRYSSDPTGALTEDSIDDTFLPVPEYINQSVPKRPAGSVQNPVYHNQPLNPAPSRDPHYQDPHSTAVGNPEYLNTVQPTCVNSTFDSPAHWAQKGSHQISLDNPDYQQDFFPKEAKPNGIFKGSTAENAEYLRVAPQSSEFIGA
Briefly: EGFR del746-750 T790M biochemical assay (Caliper mobility shift). To be noted: 5 μM ATP, 30 min, room temperature; apparent Ki (Morrison) converted by Cheng-Prusoff, Km of ATP 2.1 μM; read-out: EGFR(T790M/d746-750) Ki.
For `Cc1nc2cnc(Nc3ccnc(N4CCC(O)C(F)(F)C4)n3)cc2n1C(C)C` (racemic) [Example 507, (±)-3,3-Difluoro-1-(4-((1-isopropyl-2-methyl-1H-imidazo[4,5-c]pyridin-6-yl)amino)pyrimidin-2-yl)piperidin-4-ol], the Ki came to 21.6 nM.
The value for `CCC(C)n1cc(C(=O)NC2CCN(C3COC3)CC2)c2cnc(Nc3ccnc(-c4cnn(S(=O)(=O)C5CC5)c4)n3)cc21` (racemic) [Example 371, (±)-1-(sec-butyl)-6-((2-(1-(cyclopropylsulfonyl)-1H-pyrazol-4-yl)pyrimidin-4-yl)amino-N-(1-(oxetan-3-yl)piperidin-4-yl)-1H-pyrrolo[3,2-c]pyridine-3-carboxamide] was 1.16 nM.
The value for `CC(C)n1cc(C(=O)NC2COC2)c2cnc(Nc3ccnc(-c4cnn(S(=O)(=O)C5CC5)c4)n3)cc21` [Example 386, 6-((2-(1-(cyclopropylsulfonyl)-1H-pyrazol-4-yl)pyrimidin-4-yl)amino)-1-isopropyl-N-(oxetan-3-yl)-1H-pyrrolo[3,2-c]pyridine-3-carboxamide] was 1.11 nM; that for `CCS(=O)(=O)n1cc(-c2nccc(Nc3cc4c(cn3)c(-c3cnn(CCS(C)(=O)=O)c3)cn4C(C)C)n2)cn1` [Example 392, N-(2-(1-(ethylsulfonyl)-1H-pyrazol-4-yl)pyrimidin-4-yl)-1-isopropyl-3-(1-(2-(methylsulfonyl)ethyl)-1H-pyrazol-4-yl)-1H-pyrrolo[3,2-c]pyridin-6-amine] was 1.41 nM.
The value for `COC1CCN(c2nccc(Nc3cc4c(cn3)c(-c3cn[nH]c3)cn4C(C)C)n2)CC1` [Example 401, 1-isopropyl-N-(2-(4-methoxypiperidin-1-yl)pyrimidin-4-yl)-3-(1H-pyrazol-4-yl)-1H-pyrrolo[3,2-c]pyridin-6-amine] was 2.66 nM.
For the compound `CCC(C)n1cc(C(=O)NCCO)c2cnc(Nc3ccnc(-c4cnn(S(=O)(=O)C5CC5)c4)n3)cc21` (stereo not shown) [Example 703], the Ki was 2.5 nM.
The value for `CO[C@@H]1CCN(c2nccc(Nc3cc4c(cn3)nc(CO)n4C(C)C)n2)C[C@H]1C(F)(F)F` (racemic) [Example 629, (1-Isopropyl-6-(2-((±)-(trans)-4-methoxy-3-(trifluoromethyl)piperidin-1-yl)pyrimidin-4-ylamino)-1H-imidazo[4,5-c]pyridin-2-yl)methanol] was 2960 nM; that for `CC(C)n1c(CO)nc2cnc(Nc3ccnc(N4CCC5(OCCO5)C(F)C4)n3)cc21` (stereo not shown) [Example 654] was 36 nM; that for `C[C@H](n1c([C@@H](C)O)nc2cnc(Nc3ccnc(NCC(C)(C)S(C)(=O)=O)n3)cc21)C(F)(F)F` [Example 663] was 14.5 nM.
The value for `CC(n1cc(C(=O)NC2CCOCC2)c2cnc(Nc3ccnc(N4CC[C@@H](O)[C@@H](F)C4)n3)cc21)C(F)(F)F` (single isomer, unassigned) [Example 639] was 15 nM; that for `CO[C@H]1CCN(c2nccc(Nc3cc4c(cn3)c(-c3nn(CCO)cc3C)cn4C(C)C)n2)C[C@H]1F` [Example 348, 2-(3-(6-((2-((3R,4S)-3-Fluoro-4-methoxypiperidin-1-yl)pyrimidin-4-yl)amino)-1-isopropyl-1H-pyrrolo[3,2-c]pyridin-3-yl)-4-methyl-1H-pyrazol-1-yl)ethanol] was 19.6 nM; that for `CC(C)n1c(CO)nc2cnc(Nc3ccnc(N4CCC5(CC4)CNC(=O)CO5)n3)cc21` [Example 693] was 572 nM.
The value for `COC1CCN(c2nccc(Nc3cc4c(cn3)c(-c3cc[nH]n3)cn4C(C)C)n2)CC1` [Example 64] was 1.2 nM; that for `CC(C)n1cnc2cnc(Nc3ccnc(-c4cnn(S(=O)(=O)C5CC5)c4)n3)cc21` [Example 97, N-(2-(1-(cyclopropylsulfonyl)-1H-pyrazol-4-yl)pyrimidin-4-yl)-1-isopropyl-1H-imidazo[4,5-c]pyridin-6-amine] was 1.9 nM.
`CCC(C)n1cc(C(=O)NC2CCOCC2)c2cnc(Nc3ccnc(N4C[C@@H](F)[C@@H](O)C(C)(C)C4)n3)cc21` (mixture of isomers) [Example 646, 1-sec-Butyl-6-(2-((±)-cis-5-fluoro-4-hydroxy-3,3-dimethylpiperidin-1-yl)pyrimidin-4-ylamino)-N-(tetrahydro-2H-pyran-4-yl)-1H-pyrrolo[3,2-c]pyridine-3-carboxamide]: the Ki worked out at 3.72 nM.
The value for `CC(C)n1c(C(C)(C)O)nc2cnc(Nc3ccnc(-c4cnn(S(=O)(=O)C5CC5)c4)n3)cc21` [Example 563, 2-{6-[2-(1-Cyclopropanesulfonyl-1H-pyrazol-4-yl)pyrimidin-4-ylamino]-1-isopropyl-1H-imidazo[4,5-c]pyridin-2-yl} propan-2-ol] was 11.1 nM.
The value for `COCc1nc2cnc(Nc3ccnc(-c4cnn(S(=O)(=O)C5CC5)c4)n3)cc2n1C(C)C` [Example 279, [2-(1-Cyclopropanesulfonyl-1H-pyrazol-4-yl)-pyrimidin-4-yl]-(1-isopropyl-2-methoxymethyl-1H-imidazo[4,5-c]pyridin-6-yl)amine] was 6.87 nM; that for `C[C@@H](O)c1nc2cnc(Nc3ccnc(N4CC[C@@H](O)[C@@H](F)C4)n3)cc2n1[C@H](C)C(F)(F)F` [Example 687] was 107 nM.
The value for `COC1CCN(c2nccc(Nc3cc4c(cn3)nc(C)n4Cc3ccccc3)n2)CC1` [Example 356, 1-Benzyl-N-[2-(4-methoxy-1-piperidyl)pyrimidin-4-yl]-2-methyl-imidazo[4,5-c]pyridin-6-amine] was 562 nM; that for `C[C@H](n1c([C@@H](C)O)nc2cnc(Nc3ccnc(N4CC[C@](C)(O)[C@H](F)C4)n3)cc21)C(F)(F)F` [Example 676] was 8.18 nM; that for `CC(C)n1c(CO)nc2cnc(Nc3ccnc(N4CCC(C(F)(F)F)CC4)n3)cc21` [Example 512, (1-Isopropyl-6-((2-(4-(trifluoromethyl)piperidin-1-yl)pyrimidin-4-yl)amino)-imidazo[4,5-c]pyridin-2-yl)methanol] was 133 nM.
For `CC(C)n1c(CO)nc2cnc(Nc3ccnc(N4CC[C@@](O)(C5CC5)[C@H](F)C4)n3)cc21` (racemic) [Example 633, (3RS,4RS)-4-cyclopropyl-3-fluoro-1-(4-((2-(hydroxymethyl)-1-isopropyl-1H-imidazo[4,5-c]pyridin-6-yl)amino)pyrimidin-2-yl)piperidin-4-ol], the Ki was found to be 210 nM.
The value for `C[C@@H](O)c1nc2cnc(Nc3ccnc(N4CCC(O)C(F)C4)n3)cc2n1[C@H](C)C(F)(F)F` (stereo partly drawn) [Example 542, 3-Fluoro-1-{4-[2-((R)-1-hydroxyethyl)-1-((R)-2,2,2-trifluoro-1-methylethyl)-1H-imidazo[4,5-c]pyridin-6-ylamino]pyrimidin-2-yl}-piperidin-4-ol] was 101 nM; that for `CCC(C)n1cc(C(=O)NC2CCOCC2)c2cnc(Nc3ccnc(N4CC[C@@H](O)[C@@H](F)C4)n3)cc21` (single isomer, unassigned) [Example 323] was 3.41 nM; that for `CC(C)CC(C)n1c(CO)nc2cnc(Nc3ccnc(-c4cnn(S(=O)(=O)C5CC5)c4)n3)cc21` (stereo not shown) [Example 478, (6-(2-(1-(cyclopropylsulfonyl)-1H-pyrazol-4-yl)pyrimidin-4-ylamino)-1-(4-methylpentan-2-yl)-1H-imidazo[4,5-c]pyridin-2-yl)methanol] was 32.4 nM.
